According to patent EP4640694A1, “SELF-ASSEMBLING PEPTIDE” (CYTOPORT (TIANJIN) BIOTECHNOLOGY CO., LTD, priority 2022, dated 2025):
Where a SMILES comes first, the peptide text is derived from it. [ ]: non-standard residue; d: D form. Hyp = O=C(O)[C@@H]1C[C@@H](O)CN1

What was measured:
HepG2 = experiment: Cell condition after culture: 5-day viability of cells harvested from spheroids; assay type: cell-based; conditions: cells harvested after 15 days in 0.1 wt.% peptide, 5-day viability test
Description: In this experiment, cell spheroids cultured in Experiment III using the polypeptides as shown in SEQ ID NO.: 13 (IIIIIGOGIIGPGGEGPGGE) of the present invention at a concentration of 0.1 wt.% initiated by high-glucose medium were collected by centrifugation and digested into single cells. The applicability of the material of the present invention in cell culture and biomedical field were further evaluated by comparing the cell viability of cells cultured with the material of the present invention with that of cells cultured without the material of the present invention.
The cell spheroids in Experiment III were collected by centrifugation after 15 days of culture, and the cell spheroids were digested into single cells using trypsin, then centrifuged and collected, and an appropriate amount of high-glucose medium was added to the collected cells to prepare cell suspensions at concentrations of 5×10^5 and 5×10^4 cells/mL. Cell suspensions at a concentration of 5 ×10^4 cells/mL were inoculated into 96-well plates so that each well contained 5,000 cells. A cell suspension at a concentration of 5×10^4 cells/mL was prepared according to the method in […] for preparing a cell suspension at a concentration of 5×10^5 cells/mL and it was inoculated into a 96-well plate so that each well contained 5,000 cells, which served as a control group for this experiment. […]

HepG2 cells = experiment: Cytocompatibility: relative viability (CCK-8) and cell counting over 5 days; assay type: cell-based; conditions: 0.1%, 0.3%, 0.5%, 0.7% peptide, 5 days without medium change
Method: The method in Experiment I for preparing a cell suspension at a concentration of 5×10^5 cells/mL was used to prepare a cell suspension at a concentration of 5×10^4 cells/mL. The cells obtained at a concentration of 5×10^4 cells/mL were inoculated into 96-well plates with each well containing about 5,000 cells. In the experimental groups, the self-assembling peptide sol prepared according to the method in Example 2 was added to achieve the concentrations of polypeptide of 0.1%, 0.3%, 0.5%, and 0.7% in the final system. In the control group, an equal volume of PBS buffer was added to replace the peptide solution, respectively. […] During the experiment, 10% of the culture volume of CCK-8 kit was added every 24 hours, and after incubation for 30 minutes, the OD values of each group were measured using an enzyme labeler (parameter setting: primary wavelength of 450 nm, secondary wavelength of 630 nm), and all experiments were set up with 5 parallel groups, and the results of the experiments were shown in Figure 9A. Relative cell viability was calculated using the formula below: Relative cell viability (%) = (At−A0t)/(A1−A01) × 100%; [formula]
Wherein At is the average OD values measured after t days of culturing cells. A0t is the average value of blank background measured after t days. […]

[1] = test system: mouse mesenchymal stem cells; experiment: Cell storage at 4°C, Calcein-AM/PI live/dead staining by flow cytometry; assay type: cell-based; conditions: for survival rate of mouse mesenchymal stem cells: 3D storage group, 0.05% peptide
Method: Experimental Methods: Storage of mouse mesenchymal stem cells at 4°C was taken as an example in this experiment. The isolated mouse mesenchymal stem cells were mixed well by pipetting, […] aliquots were dispensed into freezing tubes, and mixed well by pipetting so that their cell concentration was about 1×10^6 cells/mL. In 3D group, mouse serum, 1% of double antibody of 50% MAP+50% SFEM storage solution and the polypeptide as shown in SEQ ID NO.:20 (FLIVIGOGIIGOGGEGPGGE) were added to a final concentration of 0.05%. In 2D group, mouse serum and 1% of double antibody of 50% MAP+50% SFEM storage solution were added, followed by storage in a 4°C refrigerator.
Cell viability test: • (1) The preserved cells were thoroughly pipetted and mixed well, 500 µL of each cell suspension was taken into a 1.5 mLEP tube, PBS was added for washing, followed by centrifugation at 1,500 rpm for 10 minutes; and • (2) The supernatant was discarded, and the cells were resuspended in 150 µL of 1% PBA solution. Then, 150 µL of live/dead cell staining working solution was added, mixed thoroughly, and incubated at 37°C in a light-protected manner for 15 minutes. The samples were analyzed using a flow cytometer.

[2] = Rheological experiment, energy storage modulus (G') of peptide/serum mixture; assay type: physicochemical; conditions: 0.5% peptide, 10 v/v% fetal bovine serum, neutral pH
Description: Experimental Methods: Preparation of Self-Assembling Peptide Material Samples: 2 wt% of the self-assembling peptide solution obtained in Example 2 was used, the sequences as shown in SEQ ID NO:1 (IIIIGSIIGPGGDGPGGV), SEQ ID NO:2 (IIIIGSIIGPGGEGPGGV), SEQ ID NO:3 (IIIIGSIIGOGGEGPGGV), SEQ ID NO:4 (IIIIGSIIGOGGGEGPGGV), SEQ ID NO:5 (IIIIGSIIGOGGEGPGGGV), SEQ ID NO:6 (IIIIGSIIGOGGEGPGV), SEQ ID NO:7 (IIIIGSIIGOGAEGPGGV), SEQ ID NO:8 (IIIIIGSIIOGGAEGPGGV), SEQ ID NO:9 (IIIIIGSIIGOGGVGPGGV), and SEQ ID NO: 10 (IIIIIIGSIIGOGAEGPGGVGPGGV).
Preparation of hydrogel samples formed by self-assembling peptide solutions in response to cell complete medium: 2 wt% of stock solution of self-assembling peptides obtained in Example 2 was diluted with phosphate buffer, added by fetal bovine serum to achieve a mixture solution with a final concentration of self-assembling peptide of 0.5%, a final concentration of serum of 10 v/v% with a neutral pH.
The energy storage modulus (G') of the mixture solution was measured on a 20 mm plate using MARS 60 rheometer. In order to determine the rate of formation of three-dimensional nanomatrix, the solution was placed on a plate for testing immediately after preparation. A gap of 500µm was used, mineral oil was added to the gap to prevent dehydration of the samples, and data collection commenced immediately. Dynamic Time-Scanning experiment (DTS) was performed to monitor changes in energy storage modulus (G') with time (1 Hz frequency, 1% strain) for 2000 min.

erythrocytes [3] = experiment: Erythrocyte support experiment with different initiator components; assay type: cell-based
Method: Experimental Methods: […] of erythrocyte stock solution (9.17×10^9/mL) was taken and diluted to 10 mL (9.17×10^7/mL) with 10 mM PBS, 4.5mL of erythrocyte dilution was added to a 10 ml of round-bottom tube and 4.5 mL of 4 mmol/L Calcein-AM solution was added, and the mixture was incubated at 37°C for 20 min and then centrifuged at 4°C, 1500r/min for 3 min. The supernatant was removed, and the pellet was resuspended in PBS, and repeated for 5 times to obtain about 1.5 mL of washed erythrocyte resuspension (1×10^8/mL) for latter use.
Experimental Results: PBS buffer was added to the erythrocyte resuspension solution to dilute the erythrocytes to 1×10^7/mL, and the mixture was allowed to stand for 4 hours, and the result was shown in Tube A in Figure 6.
The 1 wt% of self-assembling peptide solution (SEQ ID NO.:3) obtained in Example 2 was added ro make the final peptide concentration in the system of 0.05 wt% and the final concentration of erythrocytes of 1×10^7/mL, and the mixture was allowed to stand for 4 hours, and the result was shown in Tube B in Figure 6.
The mixed solution of polypeptide as shown in SEQ ID NO.:3 with lysine obtained in Example 3 was added to the erythrocytes resuspension solution, i.e., the polypeptide formed a three-dimensional network scaffold material in the presence of lysine, achieving a final peptide concentration in the system of 0.05 wt.%, mixing well and standing, and the result was shown in Tube C in Figure 6.
(§1) The mixted solution of self-assembling peptide as shown in SEQ ID NO.:3 with gentamicin obtained in Example 2 was added to the erythrocytes resuspension solution, i.e., the polypeptide formed the three-dimensional network scaffold material in the presence of gentamicin, achieving a final peptide concentration in the system of 0.05 wt.%, mixing well and standing, and the result was shown in Tube D in Figure 6.
as §1, with “with polylysine” for “with gentamicin”, “the self-assembling peptide” for “the polypeptide”, “of polylysine,” for “of gentamicin,”, “Tube E” for “Tube D”
as §1, with “with fibrinogen” for “with gentamicin”, “Example 3” for “Example 2”, “the self-assembling peptide” for “the polypeptide”, “of fibrinogen,” for “of gentamicin,”, “Tube F” for “Tube D”

erythrocytes [4] = experiment: Erythrocyte support by different sequences under liquid conditions; assay type: cell-based; conditions: 0.01 wt% peptide, 0.1 wt% fibronectin, 1×10^8 erythrocytes
Method: Experimental Methods: PBS buffer was used to separately prepare a concentration of 0.1 wt% stock solutions of self-assembling peptides as shown in SEQ ID NO.: 1 (IIIIIGSIIGPGGDGPGGV), SEQ ID NO.: 2 (IIIIIGSIIGPGGEGPGGV), SEQ ID NO.: 3 (IIIIIGSIIGOGGEGPGGV), and SEQ ID NO.: 7 (IIIIIGSIIGOGAEGPGGV). These solutions were autoclaved.
Using 2 mL clear glass vials, 4 materials were prepared at concentrations of 0.1 wt%, 0.05 wt%, and 0.01 wt% in 2 mL of self-assembling peptide solution (containing a final concentration of 0.1 wt% of fibronectin) and a blank group (without self-assembling peptide solution, but containing 0.1 wt% of fibronectin). A stock solution of at a concentration of 5×10^9 erythrocytes was added to each sample to a final concentration of 1×10^8, and the mixture was homogenized by pipetting. Photographs were taken every 4 hours to compare the effects of different materials on the support for erythrocytes.

CC[C@H](C)[C@H](N)C(=O)N[C@H](C(=O)N[C@H](C(=O)N[C@H](C(=O)N[C@H](C(=O)NCC(=O)N1C[C@H](O)C[C@H]1C(=O)NCC(=O)N[C@H](C(=O)N[C@H](C(=O)NCC(=O)N1CCC[C@H]1C(=O)NCC(=O)NCC(=O)N[C@@H](CCC(=O)O)C(=O)NCC(=O)N1CCC[C@H]1C(=O)NCC(=O)NCC(=O)N[C@@H](CCC(=O)O)C(=O)O)[C@@H](C)CC)[C@@H](C)CC)[C@@H](C)CC)[C@@H](C)CC)[C@@H](C)CC)[C@@H](C)CC [SEQ ID NO.: 13, IIIIIGOGIIGPGGEGPGGE] (H-IIIIIG[Hyp]GIIGPGGEGPGGE-OH)
cell viability of harvested cells compared with control group (HepG2): slightly better than that of the control group | growth curve (cell counting) over 5 days (HepG2 cells): grew with a relatively uniform and stable proliferation rate | relative cell viability over 5 days (CCK-8) (HepG2 cells): uniform and continuous steady increase in cell viability

FLIVIGOGIIGOGGGEGPGGE [SEQ ID NO.: 20]
survival rate of mouse mesenchymal stem cells ([1]; day 3 of storage (2D group 67%)): 79% | survival rate of mouse mesenchymal stem cells ([1]; day 5 of storage (2D group 43%)): 71% | increase in survival versus 2D storage ([1]; day 5 of storage): ~30%

IIIIGSIIGOGGGEGPGGV [SEQ ID NO.: 4]
hydrogel structure and elasticity in response to serum [2]: could still form a hydrogel structure but with weaker elasticity

IIIIIGSIIGOGGGEGPGGGV [SEQ ID NO.: 5]
hydrogel structure and elasticity in response to serum [2]: could still form a hydrogel structure but with weaker elasticity

IIIIIGSIIGOGGGEGPGGV [SEQ ID NO.: 3]
erythrocyte distribution (erythrocytes [3]; Tube B: 0.05 wt% peptide alone, no initiator, 1×10^7/mL erythrocytes, 4 hours): significant sedimentation | erythrocyte distribution (erythrocytes [3]; Tube C: 0.05 wt.% peptide with lysine): stereoscopic distribution | erythrocyte distribution (erythrocytes [3]; Tube D: 0.05 wt.% peptide with gentamicin): stereoscopic distribution | erythrocyte distribution (erythrocytes [3]; Tube E: 0.05 wt.% peptide with polylysine): stereoscopic distribution | erythrocyte distribution (erythrocytes [3]; Tube F: 0.05 wt.% peptide with fibrinogen): three-dimensional stereoscopic dispersion of the erythrocytes | time at which significant sedimentation of erythrocytes was shown (erythrocytes [4]): 32 h

IIIIIGSIIGOGGGEGPGV [SEQ ID NO.: 6]
hydrogel structure and elasticity in response to serum [2]: could still form a hydrogel structure but with weaker elasticity
